# “And” between values parts separate entries of the source, which are not always exact repeats. Equal values may be shown once. Where a name gives a salt, the structure may show the parent alone.
# Legend:
# [1] = test system: clonogenic stem cells of the digestive epithelium; assay: In vivo protection of intestinal epithelium clonogenic stem cells, chemotherapy drug damage, independent experiment 2; design: species or system mice
# Protocol: In Vivo Protection of Intestinal Epithelium Clonogenic Stem Cells—Chemotherapy Drug Damage—Independent Experiment 2.
# The data presented in Example 4 were expanded in the following study, in which the ability of foscarnet (phosphonoformic acid trisodium salt hexahydrate) to prevent cytotoxic damage to clonogenic stem cells of the digestive epithelium was investigated using the following experiment.
# The model of cytotoxic insult used was treatment with 2 doses of 5-Flurouracil 6 hours apart at 400 mg of 5-Fluorouracil/kilogram bodyweight. Such cytotoxic treatment provides a model of chemotherapy administered to patients undergoing treatment for cancer.
# 8 experimental groups, each of six mice, were established as set out below:
# Group 1: Received intra-peritoneal injection, containing 50 mg foscarnet/kilogram bodyweight, in sterile water, one hour prior to the first cytotoxic treatment. Received one further identical injection on each of the three days following cytotoxic treatment.
# Group 2: Received intra-peritoneal injection, containing 50 mg foscarnet/kilogram bodyweight, in sterile water, one hour prior to the first cytotoxic treatment.
# Group 3: Received intra-peritoneal injection, containing 50 mg foscarnet/kilogram bodyweight, in sterile water on each of the three days following cytotoxic treatment.
# Group 4: Received intra-peritoneal injection, containing 50 mg foscarnet/kilogram bodyweight, in sterile water, 5 minutes prior to the first cytotoxic treatment. Received one further identical injection on each of the three days following cytotoxic treatment.
# Group 5: Vehicle control. Received intra-peritoneal injection, of sterile water, one hour prior to the first cytotoxic treatment. Received one further identical injection on each of the days following cytotoxic treatment.
# Group 6: Vehicle control. Received intra-peritoneal injection, of sterile water, one hour prior to the first cytotoxic treatment.
# Group 7: Vehicle control. Received intra-peritoneal injection, of sterile water, on each of the three days following cytotoxic treatment.
# Group 8: Vehicle control. Received intra-peritoneal injection, of sterile water, 5 minutes prior to the first cytotoxic treatment. Received one further identical injection on each of the three days following cytotoxic treatment.
# On the fourth day after treatment the animals of each group were killed, and intestinal tissue harvested for histological analysis. Tissue sections were stained with haemotoxylin and eosin, and were analysed for the presence of regenerating intestinal crypts. Regenerating intestinal crypts are derived from one or more surviving clonogenic stem cells, whereas sterilised crypts (containing no surviving stem cells) disappear within two days of irradiation. The number of regenerating crypts per intestinal circumference was counted, and the mean crypt width measured. Scores for each animal were then corrected to account for the probability of preferentially scoring larger crypts according to the following equation: [formula]
# For each treatment a Protection Factor was calculated using the following equation: corrected crypts/circumference treated corrected crypts/circumference untreated (vehicle)
# [2] = test system: oral mucosa; assay: In vivo protection of oral mucosa following radiation damage (20 Gy head only), ventral tongue cellularity; design: species or system mice; settings: 50 mg/kg 1 hr prior to 20 Gy (head only) and once a day until sampling; versus vehicle
# Excerpt: In Vivo Protection of Oral Mucosa Following Radiation Damage. The ability of foscarnet (phosphonoformic acid trisodium salt hexahydrate) to prevent radiological damage to oral mucosa was illustrated by the following experiment. The model of cytotoxic insult used was treatment with 20 Gy X-ray radiation (head only) at a dose rate of 0.7 Gy/minute. Such radiation treatment provides a model of radiotherapy administered to patients undergoing treatment for cancer Experimental groups, each of four mice, were established as set out below: Group 1: Received intra-peritoneal injection, containing 50 mg foscarnet/kilogram bodyweight, in sterile water, one hour prior to radiation. Received one further identical injection on each of the two days following radiation. On the third day after radiation the animals were killed, and oral tissue harvested for analysis. […] Using a Zeiss AxioHOME the number of bromodeoxyuridine labelled and unlabelled cells were assessed in both the basal and suprabasal layers of the ventral surface of the tongue. The area from the basal layer to the stratum corneum stratum granulosum interface was measured along with the length of the basal layer. […] From these measurements the damage that the radiation had caused to the tongue could be assessed as overall cellularity of the tongue or the total number of cells/unit area (mm^2). […]
# [3] = 400 mg/kg 5FU x 2 6 hours apart plus 50 mg foscarnet/kg -5 minutes, D1, D2, D3, group Ave
# [4] = 400 mg/kg 5FU x 2 6 hours apart plus 50 mg foscarnet/kg -5 minutes, D1, D2, D3, individual mice
# [5] = 400 mg/kg 5FU x 2 6 hours apart plus 50 mg foscarnet/kg -1 hr only, group Ave
# [6] = 400 mg/kg 5FU x 2 6 hours apart plus 50 mg foscarnet/kg -1 hr only, individual mice
# [7] = 400 mg/kg 5FU x 2 6 hours apart plus 50 mg foscarnet/kg -1 hr, D1, D2, D3, group Ave
# [8] = 400 mg/kg 5FU x 2 6 hours apart plus 50 mg foscarnet/kg -1 hr, D1, D2, D3, individual mice
# [9] = 400 mg/kg 5FU x 2 6 hours apart plus 50 mg foscarnet/kg D1, D2, D3, group Ave
# [10] = 400 mg/kg 5FU x 2 6 hours apart plus 50 mg foscarnet/kg D1, D2, D3, individual mice
# [11] = group 1: 50 mg/kg foscarnet 1 hr prior to first 5-Flurouracil dose (400 mg/kg x 2) and 3 days after
structure (smiles),measurement,setting,value
"O=C(O)P(=O)(O)O [foscarnet, phosphonoformic acid trisodium salt hexahydrate]",Protection Factor,"[1]; 50 mg foscarnet/kg 5 minutes prior to 1st dose of 5-Flurouracil (400 mg/kg x 2 6 hrs apart) and D1, D2 & D3",1.11
same,Protection Factor,[1]; 50 mg foscarnet/kg 1 hr prior to 1st dose of 5-Flurouracil (400 mg/kg x 2 6 hrs apart),1.12
same,Protection Factor,"[1]; 50 mg foscarnet/kg 1 hr prior to 1st dose of 5-Flurouracil (400 mg/kg x 2 6 hrs apart) and D1, D2 & D3",1.62
same,Protection Factor,"[1]; 50 mg foscarnet/kg D1, D2, D3 following 5-Flurouracil (400 mg/kg x 2 6 hrs apart)",1.13
same,corrected crypts/circumference,[1]; [3],25.12
same,no. crypts/circumference,[1]; [3],26.97
same,corrected crypts/circumference,[1]; [4],13.01 and 39.74 and 38.64 and 15.78 and 24.39 and 19.14
same,no. crypts/circumference,[1]; [4],13.20 and 46.50 and 40.10 and 16.30 and 24.30 and 21.40
same,corrected crypts/circumference,[1]; [5],22.70
same,no. crypts/circumference,[1]; [5],24.62
same,corrected crypts/circumference,[1]; [6],35.09 and 16.52 and 22.90 and 30.41 and 11.28 and 20.01
same,no. crypts/circumference,[1]; [6],42.50 and 16.20 and 24.70 and 32.80 and 11.70 and 19.80
same,corrected crypts/circumference,[1]; [7],29.76
same,no. crypts/circumference,[1]; [7],31.28
same,corrected crypts/circumference,[1]; [8],42.10 and 17.28 and 33.67 and 29.92 and 31.88 and 23.71
same,no. crypts/circumference,[1]; [8],44.90 and 16.00 and 35.70 and 32.50 and 34.30 and 24.30
same,corrected crypts/circumference,[1]; [9],19.78
same,no. crypts/circumference,[1]; [9],19.58
same,corrected crypts/circumference,[1]; [10],13.74 and 9.34 and 35.87 and 23.12 and 21.45 and 15.14
same,no. crypts/circumference,[1]; [10],14.10 and 8.50 and 35.50 and 24.10 and 19.20 and 16.10
same,numbers of intestinal crypts after exposure to 5-Flurouracil,"[1]; Groups 1, 2, 3 and 4 (50 mg foscarnet/kg regimens)",increased numbers of intestinal crypts
same,more crypts compared to mice treated with vehicle alone,[1]; [11],~50%
same,more small intestinal clonogenic stem cells survived,[1]; [11],at least 50%
same,"average number of cells/unit area, ventral tongue epithelium (FIG. 7)",[2],increased
same,overall cellularity of the ventral tongue over time (FIG. 6),[2],increased

# Reference: US20060166941A1, “Treatment and/or prevention of non-viral epithelial damage” (Epistem Limited, priority 2003, published 2006)
